Data reported in PMC2800117, “The hemolytic and cytolytic activities of Serratia marcescens phospholipase A (PhlA) depend on lysophospholipid production by PhlA” (BMC Microbiology, 2009).

Biological target: T1, Phospholipase A2 derived from bovine pancreas (PLA2) (Bos taurus, UniProt P00593)
T1 construct: gene PLA2G1B; commercial native enzyme from bovine pancreas (Sigma)
Experiment: fluorescence enhancement (BODIPY FL release, […] nm)
Format: biochemical
Conditions: 10 mM Tris-HCl pH 8.0, 100 mM NaCl, 10 mM CaCl2, 45 nM substrate, 6 min; labelled compound; enzyme used as control

T1 sequence (P00593 23-145): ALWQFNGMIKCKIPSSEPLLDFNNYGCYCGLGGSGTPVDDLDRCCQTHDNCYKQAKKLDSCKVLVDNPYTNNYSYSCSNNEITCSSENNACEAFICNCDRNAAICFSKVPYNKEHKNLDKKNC

CC1=CC(C)=[N+]2C1=Cc1ccc(CCCCCCCCCCC(=O)OC[C@H](COP(=O)([O-])OCC[N+](C)(C)C)OC(=O)CCCCCCCCCCc3ccc4n3[B-](F)(F)[N+]3=C(C)C=C(C)C3=C4)n1[B-]2(F)F [bis-BODIPY FL C11-PC] was tested, and the “fluorescence enhancement (BODIPY FL release, 485/530 nm)” value was “S. marcescens PhlA and bovine pancreatic PLA2 released fluorescent fatty acids from bis-BODIPY FLC11-PC”.
